From patent publication US20240018102A1, “COMPOUNDS AND COMPOSITIONS FOR TREATING CONDITIONS ASSOCIATED WITH LPA RECEPTOR ACTIVITY” (Lhotse Bio, Inc., priority 2020, published 2024)

Legend:
human LPA1 [1] = molecular target: T1, human LPA1 (Homo sapiens, UniProt Q92633); experiment: In vitro LPA1 functional antagonist assay (calcium mobilization, FLIPR); format: cell-based; settings: CHO-K1 cells overexpressing human LPA1; Oleoyl LPA challenge; calcium mobilization on FLIPR Tetra
T1 construct: expressed in transfected cells; host or cells: CHO-K1
T1 sequence (Q92633 whole entry): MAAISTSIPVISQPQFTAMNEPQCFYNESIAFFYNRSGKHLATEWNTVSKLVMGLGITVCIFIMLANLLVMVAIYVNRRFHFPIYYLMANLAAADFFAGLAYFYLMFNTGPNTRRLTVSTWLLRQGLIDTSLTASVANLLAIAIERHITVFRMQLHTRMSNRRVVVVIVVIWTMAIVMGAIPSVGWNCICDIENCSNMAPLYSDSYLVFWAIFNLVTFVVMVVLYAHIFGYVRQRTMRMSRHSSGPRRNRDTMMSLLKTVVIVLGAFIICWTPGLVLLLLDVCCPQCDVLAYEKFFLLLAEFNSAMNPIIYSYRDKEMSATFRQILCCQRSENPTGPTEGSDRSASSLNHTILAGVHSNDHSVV
Protocol: In Vitro LPA1 Functional Antagonist Assay
CHO-K1 cells overexpressing human LPA1 were seeded in a total volume of 20 μL into black-walled, clear-bottom, Poly-D-lysine coated 384-well microplates and incubated at 37° C. for the appropriate time prior to testing. Assays were performed in 1× Dye Loading Buffer consisting of 1× Dye, 1× Additive A and 2.5 mM Probenecid in HBSS/20 mM Hepes. Probenicid was prepared fresh. Cells were loaded with dye prior to testing. Media was aspirated from cells and replaced with […] Dye Loading Buffer. Cells were incubated for 30-60 minutes at 37° C. After dye loading, cells were removed from the incubator and 10 μL 3× test compound was added. Cells were incubated for 30 minutes at room temperature in the dark to equilibrate plate temperature followed by Oleoyl LPA challenge at the 0.018 M. Compound antagonist activity was measured on a FLIPR Tetra (MDS). Calcium mobilization was monitored for 2 minutes and 10 μL Oleoyl LPA in HBSS/20 mM Hepes was added to the cells 5 seconds into the assay. Compound activity was analyzed using CBIS data analysis suite (ChemInnovation, CA). Percentage inhibition is calculated using the following formula:
% Inhibition=100%×(1−(mean RFU of test sample−mean RFU of vehicle control)/(mean RFU of LPA control−mean RFU of vehicle control)).

human LPA1 [2] = molecular target: T1, human LPA1; experiment: In vitro LPA1 calcium flux antagonist assay, Bioduro protocol; format: cell-based; settings: CHO-K1 cells overexpressing human LPA1 and G15a; LPA challenge at EC80; calcium mobilization on FLIPR Tetra; read-out: IC50 (nM) in Assay B2
Protocol: In Vitro LPA1 Calcium Flux Antagonist Assay Bioduro Protocol
CHO-K1 cells overexpressing human LPA1 and G15a were seeded at a total volume of 20 uL (15000 cells/well) into Matrigel pre-coated 384-well plates (coming -3764) and incubated at 37° C. After overnight incubation, the cells were serum starved for 4 h. Assays were performed in dye loading buffer containing 1× Fluo-8 AM (AAT Bioquest, 21080) and 2.5 mM probenecid (Thermo Fisher, 36400) in HBSS/20 mM Hepes. After cell starvation, the medium was replaced with 20 uL of dye loading buffer and incubated at 37° C. for 30 min. Then 5 uL of 5× compound titrated in dye loading buffer was added to the cells and incubated for 30 min followed by LPA challenge at EC80. Calcium mobilization was measured on a FLIPR Tetra (MDS). For LPA EC80 determination, starved cells were incubated with 20 uL of dye loading buffer for 1 h, then 5 uL of 5×LPA titrated in dye loading buffer was added to the cells. Calcium signals induced by LPA was monitors on a FLIPR.
Percentage inhibition is calculated using the following formula:
% Inhibition=100%×(1−(mean RFU of test sample−mean RFU of DMSO)/(mean RFU of LPA control−mean RFU of DMSO)).

Row | SMILES | IC50 (human LPA1 [1]) [nM] | IC50 (human LPA1 [2]) [nM]
1 | COc1cc([C@@H](O)C(Cn2cc3cccc(C(=O)O)c3n2)OCCc2ccccc2)cc(OC)c1C (stereo in doubt) [Compound 105a, 2-((2R,3R)-3-(3,5-dimethoxy-4-methylphenyl)-3-hydroxy-2-phenethoxypropyl)-2H-indazole-7-carboxylic acid] | 3.35 | 
2 | CC#CCCO[C@@H](Cn1cc(CC(=O)O)c(C(=O)OC)c1)[C@H](O)c1cc(OC)c(C)c(OC)c1 [Compound 101a, 2-(1-((2S,3R)-3-(3,5-dimethoxy-4-methylphenyl)-3-hydroxy-2-(pent-3-yn-1-yloxy)propyl)-4-(methoxycarbonyl)-1H-pyrrol-3-yl)acetic acid] | 213 | 
3 | COc1cc([C@@H](O)[C@H](Cc2cc3cc(C4CC4)cc(C(=O)O)n3n2)OC2CCCC2)cc(OC)c1C [Compound 229] |  | 7.26
4 | CCc1cc(C(=O)O)c2nc(C[C@H](OC3CCCC3)[C@H](O)c3cc(OC)c(C)c(OC)c3)cn2c1 [Compound 230] |  | 872
5 | COc1cc([C@@H](O)[C@H](Cn2cc3cc(C4CC4)nc(C(=O)O)c3n2)OC2CCCC2)cc(OC)c1C [Compound 231] |  | 11.1
6 | COc1cc([C@@H](O)[C@H](Cn2cc3cc(C#N)cc(C(=O)O)c3n2)OCC(C)C)cc(OC)c1C [Compound 232] |  | 27.2
7 | COc1cc([C@@H](O)[C@H](Cc2nc3c(C(=O)O)cc(C)cc3s2)OCC(C)C)cc(OC)c1C [Compound 234, 2-((2S,3R)-3-(3,5-dimethoxy-4-methylphenyl)-3-hydroxy-2-isobutoxypropyl)-6-methylbenzo[d]thiazole-4-carboxylic acid] |  | 3.71
8 | COc1cc(C(=O)O)n2nc(C[C@H](OC3CCCC3)[C@H](O)c3cc(OC)c(C)c(OC)c3)cc2c1 [Compound 235] |  | 40.8
9 | COc1cc(C(=O)O)c2nc(C[C@H](OCC(C)C)[C@H](O)c3cc(OC)c(C)c(OC)c3)sc2c1 [Compound 236] |  | 9.18
10 | COc1cc([C@@H](O)[C@H](Cc2cc3c(OC)ccc(C(=O)O)n3n2)OC2CCCC2)cc(OC)c1C [Compound 237, 2-((2S,3R)-2-(cyclopentyloxy)-3-(3,5-dimethoxy-4-methylphenyl)-3-hydroxypropyl)-4-methoxypyrazolo[1,5-a]pyridine-7-carboxylic acid] |  | 10.3
11 | COc1cc(C(=O)O)n2nc(C[C@H](OC3CCCC3)[C@H](O)c3cc(OC)c(C)cc3C)cc2c1 [Compound 238] |  | 53.3
12 | CCc1cc(C(=O)O)n2nc(C[C@H](OCC(C)C)[C@H](O)c3cc(OC)c(C)c(OC)c3)cc2c1 [Compound 241] |  | 26.7
13 | COc1cc([C@@H](O)[C@H](Cc2cc3cc(C4CC4)cc(C(=O)O)n3n2)OCC(C)C)cc(OC)c1C [Compound 242] |  | 7.5
14 | COc1cc([C@@H](O)[C@H](Cc2nc3c(C(=O)O)cc(C(F)(F)F)cc3s2)OC2CCCC2)cc(OC)c1C [Compound 244] |  | 3.34
15 | COc1cc([C@@H](O)[C@H](Cc2nc3c(C(=O)O)cc(C4CC4)cc3s2)OC2CCCC2)cc(OC)c1C [Compound 245] |  | 2.51
16 | COc1cc([C@@H](O)[C@H](Cc2nc3c(C(=O)O)cc(Cl)cc3s2)OC2CCCC2)cc(OC)c1C [Compound 246] |  | 1.65

Row | SMILES | IC50 (human LPA1 [1]) [nM] | IC50 (human LPA1 [2]) [nM]
17 | COc1cc(C(=O)O)c2nc(C[C@H](OC3CCCC3)[C@H](O)c3cc(OC)c(C)c(OC)c3)sc2c1 [Compound 247] |  | 1.93
18 | COc1cc([C@@H](O)[C@H](Cc2cn3cccc(C(=O)O)c3n2)OC2CCCC2)cc(OC)c1C [Compound 248] |  | ≥ 10000
19 | COCc1sc(C[C@H](OC2CCCC2)[C@H](O)c2cc(OC)c(C)c(OC)c2)nc1CC(=O)O [Compound 249] |  | 60.2
20 | COc1cc([C@@H](O)[C@H](Cc2cc3cc(C(F)(F)F)cc(C(=O)O)n3n2)OC2CCCC2)cc(OC)c1C [Compound 250] |  | 17.4
21 | CCc1cc(C(=O)O)n2nc(C[C@H](OC3CCCC3)[C@H](O)c3cc(OC)c(C)c(OC)c3)cc2c1 [Compound 251] |  | 37.3
22 | COc1cc([C@@H](O)[C@H](Cc2cc3cc(C)cc(C(=O)O)n3n2)OCC(C)C)cc(OC)c1C [Compound 252] |  | 24.5
23 | COc1cc([C@@H](O)[C@H](Cc2nc3c(C(=O)O)cc(C(F)(F)F)cc3s2)OCC(C)C)cc(OC)c1C [Compound 253] |  | 5.79
24 | CCc1cc(C(=O)O)c2nc(C[C@H](OCC(C)C)[C@H](O)c3cc(OC)c(C)c(OC)c3)sc2c1 [Compound 254] |  | 8.93
25 | CCc1cc(C(=O)O)c2nc(C[C@H](OC3CCCC3)[C@H](O)c3cc(OC)c(C)c(OC)c3)sc2c1 [Compound 255] |  | 5.75
26 | COc1cc([C@@H](O)[C@H](Cc2nc3c(C(=O)O)cc(C)cc3s2)OC2CCCC2)cc(OC)c1C [Compound 256] |  | 4.12
27 | CCOc1cc([C@@H](O)[C@H](Cc2nc3c(C(=O)O)cccc3s2)OC2CCCC2)cc(OCC)c1C#N [Compound 257, 2-((2S,3R)-3-(4-cyano-3,5-diethoxyphenyl)-2-(cyclopentyloxy)-3-hydroxypropyl) benzo [d]thiazole-4-carboxylic acid] |  | 47.2
28 | CCOc1cc([C@@H](O)[C@H](Cc2nc3c(C(=O)O)cccc3s2)OCC(C)C)ccc1C(C)=O [Compound 258] |  | 449
29 | CCCCc1sc(C[C@H](OC2CCCC2)[C@H](O)c2cc(OC)c(C)c(OC)c2)nc1CC(=O)O [Compound 259] |  | 31.9
30 | CCCc1sc(C[C@H](OC2CCCC2)[C@H](O)c2cc(OC)c(C)c(OC)c2)nc1[C@H](C)C(=O)O [Compound 260] |  | 28
31 | CCCc1sc(C[C@H](OC2CCCC2)[C@H](O)c2cc(OC)c(C)c(OC)c2)nc1[C@@H](C)C(=O)O [Compound 261] |  | 366
32 | COc1cc([C@@H](O)[C@H](Cc2nc3c(C(=O)O)cc(F)cc3s2)OCC(C)C)cc(OC)c1C [Compound 262] |  | 15.8

The remaining lines, values ahead:

Row | IC50 (human LPA1 [1]) [nM] | IC50 (human LPA1 [2]) [nM] | SMILES
33 |  | 10.1 | COc1cc([C@@H](O)[C@H](Cc2nc3c(C(=O)O)cc(F)cc3s2)OCC2CCCC2)cc(OC)c1C [Compound 263]
34 |  | 5.33 | COc1cc([C@@H](O)[C@H](Cc2cc3cccc(C(=O)O)n3n2)OC2Cc3ccccc3C2)cc(OC)c1C [Compound 264]
35 |  | 22.7 | COc1cc([C@@H](O)[C@H](Cc2cc3c(C(=O)O)cccc3s2)OC2CCCC2)cc(OC)c1C [Compound 265, 2-((2S,3R)-2-(cyclopentyloxy)-3-(3,5-dimethoxy-4-methylphenyl)-3-hydroxypropyl)benzo[b]thiophene-4-carboxylic acid]
36 |  | 7.18 | COc1cc([C@@H](O)[C@H](Cc2nc3c(C(=O)O)cc(F)cc3s2)OC2CCCC2)cc(OC)c1C [Compound 266]
37 |  | 103 | CCCc1sc(C[C@H](OCC(C)C)[C@H](O)c2cc(OC)c(C)c(OC)c2)nc1C(C)C(=O)O (stereo partly drawn) [Compound 267]
38 |  | 52 | COc1cc([C@@H](O)[C@H](Cc2nc(C(C)C(=O)O)c(C3CC3)s2)OC2CCCC2)cc(OC)c1C (stereo partly drawn) [Compound 268]
39 |  | 2.19 | COc1cc([C@@H](O)[C@H](Cc2nc3c(C(=O)O)cc(C4CC4)cc3s2)OCC(C)C)cc(OC)c1C [Compound 271]
40 |  | 71.6 | CCCc1sc(C[C@H](OC2CCCC2)[C@H](O)c2cc(OC)c(C(C)=O)c(OC)c2)nc1C(C)C(=O)O (stereo partly drawn) [Compound 272]
41 |  | 3.81 | COc1cc([C@@H](O)[C@H](Cc2nc3c(C(=O)O)cccc3s2)OC2Cc3ccccc3C2)cc(OC)c1C [Compound 273]
42 |  | 3.71 | COc1cc(C(=O)O)c2nc(C[C@H](OC3Cc4ccccc4C3)[C@H](O)c3cc(OC)c(C)c(OC)c3)sc2c1 [Compound 274]
43 |  | 1.65 | CCOc1cc(C(=O)O)c2nc(C[C@H](OC3CCCC3)[C@H](O)c3cc(OC)c(C)c(OC)c3)sc2c1 [Compound 275]
44 |  | 5 | COc1cc([C@@H](O)[C@H](Cc2cc3c(OC)ccc(C(=O)O)n3n2)OC2Cc3ccccc3C2)cc(OC)c1C [Compound 276]
45 |  | 2.71 | COc1cc([C@@H](O)[C@H](Cc2nc3c(C(=O)O)cc(OC)c(F)c3s2)OC2CCCC2)cc(OC)c1C [Compound 279]
46 |  | 717 | COc1cc([C@H](O)[C@H](Cc2nc3c(C(=O)O)cccc3s2)OC2CCCC2)cc(OC)c1C [Compound 281]
47 |  | 1760 | COc1cc(C(=O)O)c2nc(C[C@@H](OC3CCCC3)[C@H](O)c3cc(OC)c(C)c(OC)c3)sc2c1 [Compound 283]
48 |  | > 10000 | COc1cc(C(=O)O)c2nc(C[C@@H](OC3CCCC3)[C@@H](O)c3cc(OC)c(C)c(OC)c3)sc2c1 [Compound 284]
